# Results from patent US20120004205A1, “IL-13 INDUCED GENE SIGNATURE FOR EOSINOPHILIC ESOPHAGITIS” (Cincinnati Children's Hospital Medical Center, priority 2008, published 2012).
# Experiments:
# STAT6:ER = test: Eotaxin-3 promoter luciferase reporter in TE-7 cells cotransfected with STAT6:ER; assay type: cell-based, human; conditions: TE-7 cotransfected with eotaxin-3 promoter construct and STAT6:ER, within 24 hours
# Procedure: Plasmids were constructed or obtained as described before Blanchard, C. et al., (2005) Int. J. Biochem Cell Biol. 37: 2559-2573. Briefly, plasmid denoted P800, P500 and P100 contained respectively the first 800 by 500 by or 100 by of the human eotaxin-3 gene promoter (pEO3) subcloned into KpnI/HindIII-digested pGL3-Basic (Promega) as previously described Blanchard, C. et al., (2005) Int. J. Biochem. Cell Biol. 37: 2559-2579. Directed mutagenesis of the eotaxin-3 promoter was performed using Quickchange Kit from Stratagene according to the manufacturer's instructions using 2 primer sets: (first set) 5′-CCCAACCACAAGAAggtacc[…]-3′ and 5′-[…] ggtacc TTCTGTGGTTGGG-3′ which include a KpnI restriction site in the -89 TTCtctcgGAA STAT6 consensus site and (second set) 5′-GTAACTTAGTTCAG ggatcc […]-3′ and 5′-[…] ggatcc CTGAACTAAGTTAC-3′ which include a […] restriction site in the -698 TTCactgGAA STAT6 consensus site. […]
# Approximately 10^4 TE-7 cells per well (24 well plate) were plated on day 1 and transfected by Lipofectamine™ reagent on day 2. […] Cells were then lysed and the Firefly and Renilla luciferase activities were measured in a luminometor (Microlite, Dynatec Laboratories, Inc) using the Dual Luciferase Reporter assay system (Promega) in accordance with the manufacturer's instructions. […]
# [1] = system: primary esophageal keratinocytes from EE patients; test: Eotaxin-3 protein release into supernatant ex vivo, ELISA; assay type: cell-based, human; conditions: IL-13 100 ng/mL
# Procedure: (§1) Briefly, biopsies were digested with trypsin twice.
# (§2) Eotaxin-1, 2 and 3 Duo set ELISA were performed according to the manufacturer's instruction (R&D) and as previously described Blanchard, C. et al., (2006) J. Clin. Invest. 116: 536-547. IL-13 Quantikine® Kit (R&D) was used to quantify IL-13 protein levels. The detection limits were respectively […] for eotaxins-1, -2, -3 and IL-13, respectively. The optical density of each well was read at a wavelength of 450 nm.
# [2] = system: TE-13 esophageal cell line; test: Eotaxin-3 mRNA expression after IL-13 stimulation, real-time PCR; assay type: cell-based, human; conditions: TE-13 cells, IL-13 100 ng/mL
# [3] = system: TE-7 esophageal cell line; test: as above; assay type: cell-based, human; conditions: TE-7 cells, IL-13 100 ng/mL
# [4] = system: TE-1 esophageal cell line; test: as above; assay type: cell-based, human; conditions: TE-1 cells, IL-13 100 ng/mL
# TE-7 cells [5] = test: Eotaxin-3 mRNA stability with actinomycin-D; assay type: cell-based, human
# [6] = system: TE-6 esophageal cell line; test: Eotaxin-3 mRNA expression after IL-13 stimulation, real-time PCR; assay type: cell-based, human; conditions: TE-6 cells, IL-13 100 ng/mL
# TE-7 cells [7] = test: Eotaxin-3 protein released in culture supernatant, ELISA; assay type: cell-based, human; conditions: IL-13 100 ng/mL for 24 hours
# Procedure: as §2
# TE-13 cells = test: as above; assay type: cell-based, human; conditions: IL-13 100 ng/mL for 24 hours
# Procedure: as §2
# [8] = system: primary esophageal epithelial cells from patients with EE; test: Global transcript-expression profile (microarray) of IL-13-stimulated primary cells; assay type: cell-based, human
# Procedure: as §1
# For each patient, one distal esophageal mucosal biopsy sample was immersed in RNA, later RNA stabilization reagent (Qiagen) and stored at 4 C. for <15 days. Total RNA was extracted using the RNAeasy Mini Kit (Qiagen) according to the manufacturer's recommendations. Hybridization to DNA microarray was performed by the MicroarrayCore at Cincinnati Children's Hospital Medical Center, as previously reported Blanchard, C. et al., (2006) J. Clin. Invest. 116: 536-547. The genome wide human Affymetrix U133A plus 2.0 Genechip® was used, and gene transcript levels were determined using algorithms in the Microarray Analysis Suite and GeneSpring software (Silicon Genetics) as previously described Blanchard, C. et al., (2006) J. Clin. Invest. 116: 536-547. […] Response to therapy was defined as <1 eosinophils/high power field (hpf) and no epithelial cell hyperplasia as described herein.
# The list of differentially expressed transcripts was subjected to gene ontology analysis using DAVID (database for annotation, visualization and integrated discovery) and EASE (expression analysis systematic explorer), a web-based (hyper text transfer protocol davidabccncifcrfgov) application that allows access to a relational database of functional annotations.
# Primary esophageal epithelial cells from the esophagi of patients with EE were cultured and stimulated with 100 ng/mL IL-13 for 48 hours to identify IL-13-induced esophageal epithelial genes. The mRNA was subjected to global transcript-expression profile analysis and normalized pair wise to unstimulated controls. Genes were filtered to fold change in biopsy specimens from patients with EE compared with those from healthy patients and IL-13 stimulated epithelial cells. A highly significant positive correlation (P<0.0001, Spearman) between modified genes in biopsy specimens from patients with EE and in IL-13-stimulated keratinocytes was observed (FIG. 4C). […] Blanchard, C. et al., (2006) J. Clin. Invest.
# [9] = system: primary esophageal keratinocytes from EE patients; test: IL-13-induced eotaxin expression ex vivo, real-time PCR; assay type: cell-based, human
# Text: as §1
# human eotaxin-3 promoter = test: Eotaxin-3 promoter luciferase reporter in transfected TE-7 cells, IL-13 stimulation; assay type: cell-based
# Procedure: Plasmids were constructed or obtained as described before Blanchard, C. et al., (2005) Int. J. Biochem Cell Biol. 37: 2559-2573. Briefly, plasmid denoted P800, P500 and P100 contained respectively the first 800 by 500 by or 100 by of the human eotaxin-3 gene promoter (pEO3) subcloned into KpnI/HindIII-digested pGL3-Basic (Promega) as previously described Blanchard, C. et al., (2005) Int. J. Biochem. Cell Biol. 37: […]. Directed mutagenesis of the eotaxin-3 promoter was performed using Quickchange Kit from Stratagene according to the manufacturer's instructions using 2 primer sets: (first set) 5′-CCCAACCACAAGAAggtacc[…]-3′ and 5′-[…] ggtacc TTCTGTGGTTGGG-3′ which include a KpnI restriction site in the -89 TTCtctcgGAA STAT6 consensus site and (second set) 5′-GTAACTTAGTTCAG ggatcc […]-3′ and 5′-[…] ggatcc CTGAACTAAGTTAC-3′ which include a […] restriction site in the -698 TTCactgGAA STAT6 consensus site. The STAT6:ER plasmid was constructed in the pCDNA3 plasmid as previously described Kamogawa, Y. et al., (1998) J. Immunol. 161:1074-1077.
# Approximately 10^4 TE-7 cells per well (24 well plate) were plated on day 1 and transfected by Lipofectamine™ reagent on day 2. Briefly, […] of reporter plasmids were mixed with 3 μl of Lipofectamine™ reagent in […] of serum-free RPMI medium. In all transfection experiments, a plasmid with a Renilla luciferase reporter gene under the control of a thymidine kinase promoter (pHRL-TK, […]) was used as an internal control. In co-transfection experiments with DNSTAT6 or pCDNA3-STAT6:ER (ER-estrogen receptor) plasmids, the empty vectors pCEFL HA or pCDNA3 were added to each set of transfections, respectively, to ensure that each well received the same amount of DNA. Complete medium (0.5 mL) was added and cells were incubated for 48 h to 72 h. The transfection mixture was then replaced with fresh complete medium for an additional 12 h period before cytokine treatment. […] Cells were then lysed and the Firefly and Renilla luciferase activities were measured in a luminometor (Microlite, Dynatec Laboratories, Inc) using the Dual Luciferase Reporter assay system (Promega) in accordance with the manufacturer's instructions.
# Immunol. 42: 295-303; Hoeck, J. and Woisetschlager, M., (2001) J. Immunol. 167: 3216-3222; Yuan, Q. et al., (2006) Eur. J. Immunol. 36: 2700-2714. To determine the STAT6 element or elements involved in the eotaxin-3 stimulation observed in esophageal cell lines, the TE-7 cell line was transiently transfected with the full-length eotaxin luciferase reporter plasmid and truncated versions (FIG. 3). […] The TE-7 cell line was transfected with truncated promoter constructs or with a full-length promoter containing specific mutations within the STAT6 binding sites to map the relevant cis-acting promoter sequences (FIG. 3B).
# [10] = IL-13 100 ng/mL, 48 hours, P<0.05
compound,measurement,setting,value
CC/C(=C(\c1ccc(O)cc1)c1ccc(OCCN(C)C)cc1)c1ccccc1 [4-hydroxytamoxifene],induction of eotaxin-3 promoter luciferase activity,STAT6:ER,significant (P<0.01) induction
IL-13: cytokine Interleukin 13 (Preprotech) added to culture media to stimulate esophageal cells,release of eotaxin-3 protein into the supernatant,[1],6.03 ± 0.8 ng/mL
same,Eotaxin-3 mRNA expression increase,[2],1007 fold
same,Eotaxin-3 mRNA expression increase,[3],77 fold
same,Eotaxin-3 mRNA expression increase,[4],4 fold
same,"stability of eotaxin-3 mRNA, IL-13 treated versus non-treated",TE-7 cells [5],not significantly different
same,Eotaxin-3 mRNA expression increase,[6],8 fold
same,eotaxin-3 released in the supernatant,TE-7 cells [7],2.5 ± 0.7 µg/mL
same,eotaxin-3 released in the supernatant,TE-13 cells,0.55 ± 0.37 µg/mL
same,genes downregulated by 2-fold or greater,"[8]; IL-13 100 ng/mL, 48 hours",116 genes
same,genes downregulated by more than 1.5-fold,"[8]; IL-13 100 ng/mL, 48 hours",553 genes
same,genes modified by 2-fold or greater,"[8]; IL-13 100 ng/mL, 48 hours",371 genes
same,genes modified by more than 1.5-fold,"[8]; IL-13 100 ng/mL, 48 hours",1333 genes
same,genes significantly modified compared with unstimulated cells (P<0.01),"[8]; IL-13 100 ng/mL, 48 hours",952 genes
same,genes significantly modified compared with unstimulated cells (P<0.05),"[8]; IL-13 100 ng/mL, 48 hours",4698 genes
same,genes upregulated by 2-fold or greater,"[8]; IL-13 100 ng/mL, 48 hours",255 genes
same,genes upregulated by more than 1.5-fold,"[8]; IL-13 100 ng/mL, 48 hours",780 genes
same,IL-13-induced genes overlapping with the EE transcriptome,[8]; [10],126 genes
same,share of the EE transcriptome overlapped by IL-13-induced genes,[8]; [10],22%
same,involucrin downregulation (microarray),[8]; IL-13-stimulated cells,4.8 fold
same,TNFAIP6 expression (microarray),[8]; IL-13-stimulated keratinocytes,highly overexpressed
same,cadherin-26 upregulation (microarray),[8]; IL-13-stimulated keratinocytes,50 fold
same,eotaxin-3 upregulation (microarray),[8]; IL-13-stimulated keratinocytes,279 fold
same,eotaxin-1 and eotaxin-2 expression (microarray),[8]; IL-13-treated primary keratinocyte cultures,not overexpressed
same,increase of eotaxin-3 mRNA expression,[9]; 48 hours after 10 ng/mL IL-13,1000 fold
same,increase of eotaxin-3 mRNA expression,[9]; 48 hours after 100 ng/mL IL-13,10.000 fold
same,"increase of luciferase activity, full-length reporter plasmid","human eotaxin-3 promoter; TE-7, IL-13 10 ng/mL",2.7+/−0.8 fold
same,"increase of luciferase activity, full-length reporter plasmid","human eotaxin-3 promoter; TE-7, IL-13 100 ng/mL",10.8+/−2.2 fold
same,"IL-13-induced luciferase activity, construct with mutated -89 binding site","human eotaxin-3 promoter; TE-7, after IL-13 stimulation",no increase in luciferase activity
same,"IL-13-induced promoter activity, construct P100 (truncated proximal STAT6 site)","human eotaxin-3 promoter; TE-7, after IL-13 stimulation",no activity
same,"IL-13-induced promoter activity, promoter containing 800 or 500 bp","human eotaxin-3 promoter; TE-7, after IL-13 stimulation",full IL-13-induced activity
